Data: patent US20250195542A1, “METABOLIC DISEASE THERAPEUTIC AGENT OR PREVENTIVE AGENT” (Peking University, priority 2022, published 2025)

Experiments:
RDH10 = biological target: T1, RDH10 (Mus musculus, UniProt Q8VCH7); test: Protein fishing (pull-down) with molecular probe and proteomics analysis; type: binding, C57BL/6J mice
T1 construct: Take approximately 50 mg of liver tissue from C57BL/6J mice and add 1 mL of RIPA lysis buffer; from tissue; host or cells: mouse liver (C57BL/6J) lysate
T1 sequence (Q8VCH7 1-341): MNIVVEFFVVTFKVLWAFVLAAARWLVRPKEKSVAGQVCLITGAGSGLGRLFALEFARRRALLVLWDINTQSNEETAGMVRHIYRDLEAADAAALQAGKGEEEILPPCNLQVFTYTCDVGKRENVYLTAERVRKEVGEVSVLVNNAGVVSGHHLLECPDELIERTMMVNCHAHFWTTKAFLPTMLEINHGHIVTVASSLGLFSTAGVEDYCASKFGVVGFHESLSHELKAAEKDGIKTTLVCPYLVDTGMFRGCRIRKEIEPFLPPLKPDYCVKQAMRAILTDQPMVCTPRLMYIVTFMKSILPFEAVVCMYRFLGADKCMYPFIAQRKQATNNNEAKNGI
Method: • 1. Preparation of Liver Protein: Take approximately 50 mg of liver tissue from C57BL/6J mice and add 1 mL of RIPA lysis buffer. Lyse the proteins on ice, then centrifuge at 12,000 rpm for 30 minutes at 4° C. Collect the supernatant, measure the protein concentration using BCA method, and dilute to 1 mg/mL with PBS. • 2. Sample Preparation: Prepare new 1.5 mL EP tubes and divide them into control group, drug group, and competitive inhibition group. Add 100 μL of PBS solution containing 40 μM Biotin to the control group, 100 μL of PBS solution containing 40 μM ACS-biotin (prepared in Example 1) to the drug group, and 100 μL of PBS solution containing 40 μM ACS-biotin and 400 μM ACS to the competitive inhibition group. Then, add 100 μL of liver protein lysate (1 mg/mL) to each tube and incubate on a shaking incubator at 4° C. for 2 hours. • 3. Washing Streptavidin Beads: Add 100 μL of streptavidin beads to new 1.5 mL EP tubes and centrifuge at 2,700 rpm for 1 minute. Discard the supernatant and wash the beads with 100 μL of PBS three times. • 4. Binding and Washing: Add the solutions from step 2 to the washed streptavidin beads. Incubate on a shaking incubator at 4° C. for 2 hours, then centrifuge at 2,700 rpm for 1 minute. Discard the supernatant and wash the beads with 100 μL of PBS three times. • 5. Protein Elution: Add 50 μL of PBS to the beads, mix well, and then add 5×SDS-PAGE sample buffer. Boil for 5 minutes and centrifuge at 13,000 rpm for 5 minutes. Store the supernatant at −20° C. for SDS-PAGE gel electrophoresis. • 6. Protein Detection: Stain with Coomassie Brilliant Blue and cut the gel for proteomics analysis.

FGF21 [1] = test: FGF21 gene expression in the liver of MCD mice (qPCR); type: in vivo, C57BL/6J mice; conditions: oral 4 weeks, Antcin C 20 and 40 mg/kg, AK-GLU 26.6 mg/kg, compared to DEA 20 mg/kg, FIG. 6
Method: Four-week-old male C57BL/6J mice were purchased from the Experimental Animal Center, Peking University Health Science Center. The mice were randomly divided into groups, with 10 mice per group. Methionine choline-deficient diet (MCD) was used to induce non-alcoholic steatohepatitis (NASH), forming the MCD model mice. The model mice were treated with an oral administration of drugs for 4 weeks. After the final treatment, the mice were fasted overnight, and then sacrificed. Serum and liver tissues were stored at −80° C., which could be compared with untreated MCD mice (“MCD”) and normal mice (“Nor” or “Normal”). The dosing amounts for each group were as follows: low-dose Antcin C (“AC-L”): 20 mg/kg; high-dose Antcin C (“AC-H”): 40 mg/kg; DEA: 20 mg/kg; AK-GLU: 26.6 mg/kg.
Total RNA Extraction: Liver tissue samples from the mice (10-20 mg) were cut into pieces and added to 1 ml of Tranzol. The mixture was placed on ice and homogenized, then transferred to an RNase-free and DNase-free EP tube. To each tube, 0.2 ml of chloroform was added, and the mixture was vigorously shaken for 15 seconds. After incubation at low temperature for 3 minutes, the mixture was centrifuged at 12000 rpm for 15 minutes at 4° C. The aqueous upper phase was transferred to a new EP tube, and an equal volume of isopropanol was added. […] RNA concentration was measured using a spectrophotometer with an A260/280 ratio. […]

[2] = test system: non-alcoholic steatohepatitis (NASH) in MCD mice; test: Serum ALT in MCD mice (NASH model), Example 6; type: in vivo, C57BL/6J mice; conditions: oral 4 weeks, Antcin K 20 mg/kg, Antcin C 20 and 40 mg/kg, AK-GLU 26.6 mg/kg, better than obeticholic acid 10 mg/kg and DEA 20 mg/kg, FIG. 8
Method: (§1) The MCD mouse model and drug administration method were the same as in Example 4. After the final treatment, the mice were sacrificed, and the liver tissue samples were fixed overnight in 4% paraformaldehyde, embedded in paraffin, and sectioned. The sections were stained with hematoxylin and eosin (H&E) according to the following procedure: immerse the sections in the following solutions sequentially: xylene (I) for 15 minutes, xylene (II) for 15 minutes, 50% xylene-absolute ethanol for 2 minutes, absolute ethanol (I) for 5 minutes, absolute ethanol (II) for 5 minutes, 80% ethanol for 5 minutes, distilled water for 5 minutes, hematoxylin staining solution for 5 minutes, rinse with running water for 5 minutes, 1% hydrochloric acid ethanol for 30 seconds, rinse with water for 30 seconds, wash with distilled water for 5 seconds, 0.5% eosin staining solution for 2 minutes, rinse with distilled water for 30 seconds, 80% ethanol for 30 seconds, 95% ethanol (I) for 1 minute, 95% ethanol (II) for 1 minute, absolute ethanol (I) for 3 minutes, absolute ethanol (II) for 3 minutes, xylene (I) for 3 minutes, xylene (II) for 3 minutes, and mount with neutral resin.
(§2) The treated groups were compared with untreated MCD mice (“MCD”) and normal mice (“Nor”). The drug administration doses were as follows: positive control obeticholic acid (OCA): 10 mg/kg; Antcin K (AK): 20 mg/kg; low-dose Antcin C (AC-L): 20 mg/kg; high-dose Antcin C (AC-H): 40 mg/kg; DEA: 20 mg/kg; AK-GLU: 26.6 mg/kg.
After the final treatment, the mice were fasted overnight, sacrificed, and blood was collected from the eye vein. The whole blood was allowed to stand for 2 hours, centrifuged at 6000 rpm for 10 minutes, and the serum was obtained.

[3] = test system: non-alcoholic steatohepatitis (NASH) in MCD mice; test: Pathological (H&E) staining of liver sections from MCD mice, Example 6; type: in vivo, C57BL/6J mice; conditions: oral 4 weeks, Antcin K 20 mg/kg, Antcin C 20 and 40 mg/kg, AK-GLU 26.6 mg/kg, better than obeticholic acid and DEA, FIG. 9
Method: as §1, §2

FGF21 [4] = test: Serum FGF21 protein in MCD mice (ELISA); type: in vivo, C57BL/6J mice; conditions: oral 4 weeks, Antcin K 20 mg/kg, Antcin C 20 and 40 mg/kg, AK-GLU 26.6 mg/kg, compared to DEA, FIG. 10
Method: The modeling and treatment of MCD mice were conducted as described in Example 4. The treated groups were compared with untreated MCD mice (“MCD”) and normal mice (“Nor”). The dosages for each treatment group were as follows: positive control obeticholic acid (“OCA”): 10 mg/kg; Antcin K (“AK”): 20 mg/kg; low-dose Antcin C (“AC-L”): 20 mg/kg; high-dose Antcin C (“AC-H”): 40 mg/kg; DEA: 20 mg/kg; AK-GLU: 26.6 mg/kg.
The serum sampling method from mice was the same as in Example 6. The FGF21 levels were tested using an ELISA kit (Beyotime), with the following procedure: The microplate was equilibrated at room temperature for 20 minutes. Then, 50 μL of serum samples or different concentrations of standards were added to each well. Next, 100 μL of HRP-conjugated detection antibody was added, and the plate was covered with a sealing film and incubated at 37° C. for 60 minutes. The liquid was discarded, and the plate was dried with absorbent paper. Each well was then washed with 350 μL of washing buffer, left for 1 minute, and the liquid was discarded and dried with absorbent paper. This washing step was repeated 5 times. Then, 50 μL of Substrate A and 50 μL of Substrate B were added to each well and incubated at 37° C. in the dark for 15 minutes. After that, 50 μL of stop solution was added to each well, and the absorbance at 450 nm was measured within 15 minutes. A standard curve was plotted with the absorbance of the standards on the vertical axis and the standard concentrations on the horizontal axis. The serum sample absorbance values were used to determine the FGF21 protein concentrations based on this standard curve.

FGF21 [5] = test: FGF21 protein expression in the liver of MCD mice (Western blot); type: in vivo, C57BL/6J mice; conditions: oral 4 weeks, Antcin K 20 mg/kg, Antcin C 20 and 40 mg/kg, compared to DEA 20 mg/kg, FIG. 7
Method: The modeling and procedures for MCD mice are as described in Example 4. Comparisons were made between the treated groups and untreated MCD mice (“MCD”) and normal mice (“Normal”). The dosing for each treatment group was as follows: positive drug obeticholic acid (“OCA”): 10 mg/kg; Antcin K (“AK”): 20 mg/kg; low-dose Antcin C (“AC-L”): 20 mg/kg; high-dose Antcin C (“AC-H”): 40 mg/kg; DEA: 20 mg/kg.
Liver tissue (15-20 mg) was homogenized in RIPA lysis buffer on ice, and then centrifuged at 13,000 rpm for 30 minutes at 4° C. The middle layer liquid was transferred to a new centrifuge tube and the protein concentration was measured using BCA method. For each sample, 20 μg of protein was separated by SDS-PAGE and then transferred to a PDVF membrane using Bio-Rad's standard wet transfer system at 200 mA for 60 minutes. Subsequently, the membrane was cut according to protein molecular weight and blocked with 0.5% BSA at room temperature for 60 minutes. The primary antibody was incubated at 4° C. for 14 hours, followed by washing with TBST at room temperature 3 times for 5 minutes each. The secondary antibody was incubated at room temperature for 1 hour, followed by washing with TBST at room temperature 3 times for 10 minutes each. ECL reagent was used for detection.

[6] = test system: non-alcoholic steatohepatitis; conditions: reported; cited from earlier work

| Compound | log2 (ACS-biotin/ACS-biotin+ACS) for RDH10 protein (RDH10; 40 μM ACS-biotin vs 40 μM ACS-biotin + 400 μM ACS, FIG. 14C) | log2 (ACS-biotin/Biotin) for RDH10 (RDH10; 40 μM ACS-biotin vs 40 μM Biotin, mouse liver protein lysate, FIG. 14B) | gene expression levels of FGF21 in vivo (FGF21 [1]) | serum ALT levels [2] | steatosis and ballooning in the liver [3] | serum FGF21 protein levels (FGF21 [4]) | FGF21 protein expression levels in liver (FGF21 [5]) | effect in preventing and treating non-alcoholic steatohepatitis [6] |
| --- | --- | --- | --- | --- | --- | --- | --- | --- |
| 25S-Antcin C—CO—NH-PEG2-biotin [ACS-biotin] | > 0 | > 6 | – | – | – | – | – | – |
| C=C(CC[C@@H](C)[C@H]1CC[C@H]2C3=C(C(=O)C[C@]12C)[C@@]1(C)CC[C@@H](O)[C@](C)(O)[C@@H]1C[C@@H]3O[C@@H]1OC(CO)[C@@H](O)[C@H](O)C1O)C(C)C(=O)O (stereo partly shown) [AK-GLU, Antcin K-7-O-glucoside] | – | – | significantly activated | significantly reduced | significantly reduced | significantly upregulated | – | – |
| C=C(CC[C@@H](C)[C@H]1CC[C@H]2C3=C(C(=O)C[C@]12C)[C@@]1(C)CCC(=O)[C@@H](C)[C@@H]1C[C@@H]3O)C(C)C(=O)O (stereo partly shown) [Antcin C] | – | – | significantly activated | significantly reduced | significantly reduced | significantly upregulated | significantly upregulated | – |
| C=C(CC[C@@H](C)[C@H]1CC[C@H]2C3=C(C(=O)C[C@]12C)[C@@]1(C)CC[C@@H](O)[C@](C)(O)[C@@H]1C[C@@H]3O)C(C)C(=O)O (stereo partly shown) [Antcin K] | – | – | – | significantly reduced | significantly reduced | significantly upregulated | significantly upregulated | – |
| C=C(CC[C@@H](C(=O)O)[C@H]1CC[C@@]2(C)C3=CC[C@H]4C(C)(C)[C@@H](O)CC[C@]4(C)C3=CC[C@]12C)C(C)C [DEA] | – | – | – | – | – | – | – | relatively weak |
